The subject of experiment [1] is membrane-associated phospholipase B (PLB activity). The experiment is described as follows: Radiometric assay, membrane-associated PLB activity. In kind it is biochemical, Cryptococcus neoformans H99. The note with it: pH 4. As for the experimental part:
Fungal isolates and media. […] Isolate H99 was kindly supplied by Dr. Gary Cox (Duke University Medical Center, Durham, N.C., USA), and subcultured onto Sabouraud dextrose agar (SDA) at 30° C.
Cellular disruption to prepare membrane and cytosolic fractions. The cell pellet from the preparation of the supernatant, above, was also frozen at −70° C. After washing twice with imidazole buffer, it was disrupted in the presence of a protease inhibitor cocktail (P 8215 for fungal and yeast cells; 4-(2-aminoethyl)benzenesulfonyl fluoride hydrochloride, 100 mM, 1,10-phenanthroline, 500 mM, pepstatin A, 2.2 mM, E-64, 1.4 mM; Sigma) in a MiniBeadbeater-8 Cell Disrupter (MBB-8; Daintree Scientific, Tasmania, Australia) for three cycles of 1 min, alternating with a 1 min cooling period on ice. The homogenate was centrifuged at 14,000 g for 15 min to obtain the membrane (pellet) and the cytosolic (supernatant) fractions.
Radiometric assay method for phospholipases. Enzyme activities were measured as described previously in a final volume of 125 μL at 37° C. For the determination of secreted PLB activity, carrier dipalmitoyl phosphatidylcholine (DPPC, final concentration 800 μM) and 1,2-di[1-^14C] palmitoyl phosphatidylcholine (20,000 dpm) were dried under nitrogen and suspended in 125 mM imidazole acetate buffer (assay buffer, pH 4.0) by sonication using a Branson 450 sonifier. The reaction time was 22 min, using 1 μg total protein and PLB activity was determined by the rate of decrease of the radiolabelled PC substrate, with appearance of the label in free fatty acid. This assay also simultaneously allows for the determination of phospholipase A, C and D activities. These activities were measured by the appearance of radiolabel from PC in Lyso PC, diacylglycerol and phosphatidic acid, respectively.
All reactions were terminated by adding 0.5 mL of chloroform:methanol (2:1 v/v). The reaction products were extracted by the method as disclosed in Bligh, E. C. and W. J. Dyer. 1959 ‘A rapid method of total lipid extraction and purification.’ Can. J. Biochem. Physiol. 37:911-917, separated by TLC and quantified as previously described. In the case of PLC activity, the TLC plates were developed in petroleum ether (BP 60-80° C.): diethyl ether: acetic acid (90:15:1, v/v/v) instead of chloroform:methanol:water (65:25:4, v/v/v).
All experiments were carried out in duplicate or triplicate. The effects of pH on the various phospholipase activities were measured using 50 mM final concentration of imidazole-acetate buffer (pH range 3-5), MES buffer (pH range 6-8) and glycine buffer (pH 9-10). Controls for non-enzymic breakdown of substrates were included at all pH values. Cations, Triton X-100 and metal chelators were made up as stock solutions in water and diluted to the final concentration in the appropriate assay buffer.
Preparation of inhibitors and use in assays. The following compounds were tested (for structures, see FIG. 2): compound 1, 1,12-bis(tributylphosphonium)dodecane dibromide (Fluka AG, Buchs, Switzerland); compound 2, 1,10-bis(tributylammonium)-decane dibromide; compound 3, 1,12-bis(tributylammonium)do-decane dibromide (both synthesised in-house); compound 4, 1,10-bis(trimethylammonium)decane dibromide [“decamethonium”] (Sigma, St. Louis Mo., USA). All compounds were prepared as stock solutions of 700 μM in assay buffer containing 5 mM EDTA, which was then diluted serially with buffer to obtain solutions of 70, 7, 0.7 and 0.07 μM. In each assay, 45 μL of these solutions was used, and the final volume of 125 μL was made up of substrate, enzyme and buffer. The radiometric assay was carried out as above.

The subject of the next experiment is dermatophyte isolates. Kind of experiment: Susceptibility of dermatophytes, results stated over all isolates. The conditions noted are these: read-out: mean MICs across all the isolates. Type of experiment: cell-based. Here is the method:
Isolates were tested using the method described in the National Committee for Clinical Laboratory Standards (NCCLS) document M38-P for filamentous fungi, with dermatophyte specific modifications described by Fernández-Torres et al, Current topics in Medical Mycology, 14-19 Feb. 1999.
Five dermatophyte isolates were, namely; T. rubrum, T. mentagrophytes, T. tonsurans, M. canis and M. gypseum, all of which produce lipases and some, phospholipase. These isolates were tested by the broth microdilution method according to NCCLS document M38-P, for activity against selected antifungal agents. In addition, ten randomly selected isolates of T. tonsurans were also tested. All isolates were maintained on SDA at 28° C. Candida parapsilosis (ATCC 20019) was used as the reference control is organism. […]
Fungal cultures were subcultured onto Potato Dextrose Agar and grown at 28° C. for 7-10 days. […] Inoculum quantification was performed by plating 100 μl of the 1:1000 dilution of the adjusted inoculum on SDA plates, incubated at 28° C., and after 7 days of incubation, the colonies were counted.
Testing was based on NCCLS M38-P document for testing filamentous moulds. […] Plates were incubated at 28° C. for 7 days, and read at 3 days and 7 days of incubation. […]
Growth in microtitre trays were read by visual inspection by using an illuminated-reversed mirror. […]

Consider `CCCC[P+](CCCC)(CCCC)CCCCCCCCCCCC[P+](CCCC)(CCCC)CCCC` [Compound 1, 1,12-bis(tributylphosphonium)dodecane dibromide], for which the “% Inhibition PLB, Membrane-bound Enzyme” value in experiment [1] (2.5 μM), in experiment [1] (25 μM) and in experiment [1] (250 μM) was 0% throughout.

In the case of `CCCC[N+](CCCC)(CCCC)CCCCCCCCCCCC[N+](CCCC)(CCCC)CCCC` [Compound 3, 1,12-bis(tributylammonium)do-decane dibromide], the MIC in the experiment on dermatophyte isolates fell in the range of 2.62 to 7.61 µg/mL.
